Measurements: PMC3961306, “Comparison of the Cancer Gene Targeting and Biochemical Selectivities of All Targeted Kinase Inhibitors Approved for Clinical Use” (PLoS ONE, 2014)

Legend:
Test in all cases: Kinase profiling in a biochemical assay panel (mobility shift assays and ELISA), %-inhibition at 1 μM; selectivity entropy
[1] = biological target: T1, panel of more than 300 wild-type and mutant kinases (313 kinase panel) (Homo sapiens, UniProt O14757); settings: kinase CHK1; 1 μM compound
T1 sequence (O14757 1-476): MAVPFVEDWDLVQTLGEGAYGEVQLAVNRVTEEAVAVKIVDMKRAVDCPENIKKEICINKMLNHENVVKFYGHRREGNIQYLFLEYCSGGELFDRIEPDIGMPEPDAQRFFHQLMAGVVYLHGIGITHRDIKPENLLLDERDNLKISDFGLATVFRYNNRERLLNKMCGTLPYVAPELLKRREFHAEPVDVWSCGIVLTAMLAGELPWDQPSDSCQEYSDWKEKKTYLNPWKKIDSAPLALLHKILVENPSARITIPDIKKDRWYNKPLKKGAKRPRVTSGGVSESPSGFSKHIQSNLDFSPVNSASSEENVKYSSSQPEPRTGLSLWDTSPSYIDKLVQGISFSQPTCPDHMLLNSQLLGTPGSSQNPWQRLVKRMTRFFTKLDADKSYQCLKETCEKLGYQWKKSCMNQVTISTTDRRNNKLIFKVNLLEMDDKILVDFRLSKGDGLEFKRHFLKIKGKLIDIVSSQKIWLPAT

[2] = biological target: T2, panel of more than 300 wild-type and mutant kinases (313 kinase panel) (Homo sapiens, UniProt O60285)
T2 sequence (O60285 1-661): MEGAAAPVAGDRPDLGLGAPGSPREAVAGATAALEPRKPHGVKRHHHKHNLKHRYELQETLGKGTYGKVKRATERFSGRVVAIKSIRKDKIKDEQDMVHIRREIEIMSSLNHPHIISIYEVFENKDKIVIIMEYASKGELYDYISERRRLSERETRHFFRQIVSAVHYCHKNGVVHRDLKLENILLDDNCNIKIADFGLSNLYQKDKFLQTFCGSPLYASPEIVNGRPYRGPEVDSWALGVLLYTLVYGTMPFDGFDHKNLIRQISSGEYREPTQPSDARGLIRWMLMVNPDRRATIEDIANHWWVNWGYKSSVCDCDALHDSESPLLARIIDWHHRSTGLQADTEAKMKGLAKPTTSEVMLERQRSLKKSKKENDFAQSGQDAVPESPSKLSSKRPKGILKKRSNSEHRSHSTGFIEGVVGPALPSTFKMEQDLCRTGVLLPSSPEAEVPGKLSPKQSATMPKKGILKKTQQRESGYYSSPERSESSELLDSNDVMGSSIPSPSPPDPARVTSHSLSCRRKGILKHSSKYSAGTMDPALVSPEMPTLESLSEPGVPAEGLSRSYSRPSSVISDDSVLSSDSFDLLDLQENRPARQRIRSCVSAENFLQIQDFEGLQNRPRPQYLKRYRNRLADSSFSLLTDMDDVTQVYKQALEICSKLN

[3] = biological target: panel of more than 300 wild-type and mutant kinases (313 kinase panel) (Homo sapiens, UniProt P07949, G691S)
[4] = biological target: panel of more than 300 wild-type and mutant kinases (313 kinase panel) (Homo sapiens, UniProt P08069); settings: kinase IGF1R; compound at 1 μM
[5] = biological target: panel of more than 300 wild-type and mutant kinases (313 kinase panel) (Homo sapiens, UniProt Q08345); settings: kinase DDR1; compound at 1 μM
[6] = biological target: panel of more than 300 wild-type and mutant kinases (313 kinase panel) (Homo sapiens, UniProt Q13164); settings: kinase Erk5; compound at 1 μM
[7] = biological target: T3, panel of more than 300 wild-type and mutant kinases (313 kinase panel) (Homo sapiens, UniProt Q96BR1); settings: kinase SGK3; 1 μM
T3 sequence (Q96BR1 1-496): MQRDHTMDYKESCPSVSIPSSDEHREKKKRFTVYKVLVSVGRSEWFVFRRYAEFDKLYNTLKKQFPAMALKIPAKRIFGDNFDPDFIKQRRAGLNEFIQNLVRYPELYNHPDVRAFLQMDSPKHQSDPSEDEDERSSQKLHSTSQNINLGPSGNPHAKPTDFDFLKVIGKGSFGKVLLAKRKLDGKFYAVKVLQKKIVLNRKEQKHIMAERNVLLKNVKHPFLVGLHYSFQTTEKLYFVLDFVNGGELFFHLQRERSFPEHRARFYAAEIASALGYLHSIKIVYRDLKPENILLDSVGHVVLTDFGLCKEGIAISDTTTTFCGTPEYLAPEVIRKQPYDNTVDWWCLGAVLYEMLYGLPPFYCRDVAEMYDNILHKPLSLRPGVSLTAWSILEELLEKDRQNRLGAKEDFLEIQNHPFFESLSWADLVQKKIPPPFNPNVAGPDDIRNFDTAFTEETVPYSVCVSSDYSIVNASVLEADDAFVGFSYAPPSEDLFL

[8] = biological target: panel of more than 300 wild-type and mutant kinases (313 kinase panel) (Homo sapiens, UniProt Q9P289)
[9] = biological target: panel of more than 300 wild-type and mutant kinases (313 kinase panel) (Homo sapiens, UniProt Q9Y463); settings: kinase DYRK1B; compound at 1 μM

Which results are given for `O=S(=O)(c1cccc2cnccc12)N1CCCNCC1` [fasudil]?
%-inhibition, CHK1 [1]: -11%; %-inhibition of NuaK1 ([2]; kinase NuaK1, 1 μM): 44%; %-inhibition of RET(G691S) ([3]; kinase RET(G691S), 1 μM): -0.0546%; %-inhibition of IGF1R [4]: -13%; %-inhibition of DDR1 [5]: -1.19%; %-inhibition of Erk5 [6]: -3.32%; %-inhibition of SGK3 [7]: 7%; %-inhibition of MST4 ([8]; kinase MST4, 1 μM): 0.181%; %-inhibition of DYRK1B [9]: 4.76%

With `Cc1cn(-c2cc(NC(=O)c3ccc(C)c(Nc4nccc(-c5cccnc5)n4)c3)cc(C(F)(F)F)c2)cn1` [nilotinib] as the compound, how does the “%-inhibition, CHK1” value [1] read?
The value was -15%.

And the “%-inhibition of NuaK1” value ([2]; 1 µM)?
Its value is -17%.

And the “%-inhibition of RET(G691S)” value ([3]; 1 µM)?
The value was 13%.

What about the “%-inhibition of IGF1R” value [4] of the same compound?
The value was -11%.

What about the “%-inhibition of DDR1” value [5] of the same compound?
The value was 103%.

And the “%-inhibition of Erk5” value [6]?
Its value is -3.64%.

And the “%-inhibition of SGK3” value [7]?
The value was 15%.

What about the “%-inhibition of MST4” value ([8]; kinase MST4, 1 μM) of the same compound?
Its value is 1.77%.

And the “%-inhibition of DYRK1B” value [9]?
Its value is -7.58%.

Which “%-inhibition, CHK1” value [1] does the source give for `CNC(=O)c1cc(Oc2ccc(NC(=O)Nc3ccc(Cl)c(C(F)(F)F)c3)c(F)c2)ccn1` [regorafenib] here?
Its value is -3%.

What about the “%-inhibition of NuaK1” value ([2]; kinase NuaK1, 1 μM) of the same compound?
Its value is -1.75%.

And the “%-inhibition of RET(G691S)” value ([3]; kinase RET(G691S), 1 μM)?
The value was 103%.

And the “%-inhibition of IGF1R” value [4]?
Its value is -1.72%.

And the “%-inhibition of DDR1” value [5]?
Its value is 101%.

What about the “%-inhibition of Erk5” value [6] of the same compound?
Its value is 16%.

What about the “%-inhibition of SGK3” value [7] of the same compound?
Its value is -8%.

And the “%-inhibition of MST4” value ([8]; kinase MST4, 1 μM)?
The value was 3.66%.

What about the “%-inhibition of DYRK1B” value [9] of the same compound?
Its value is -7.4%.

With `CO[C@H]1C[C@@H]2CC[C@@H](C)[C@@](O)(O2)C(=O)C(=O)N2CCCC[C@H]2C(=O)O[C@H]([C@H](C)C[C@@H]2CC[C@@H](OC(=O)C(C)(CO)CO)[C@H](OC)C2)CC(=O)[C@H](C)/C=C(\C)[C@@H](O)[C@@H](OC)C(=O)[C@H](C)C[C@H](C)/C=C/C=C/C=C/1C` [temsirolimus] as the compound, how does the “%-inhibition, CHK1” value [1] read?
The value was 4.42%.

What about the “%-inhibition of NuaK1” value ([2]; kinase NuaK1, 1 μM) of the same compound?
Its value is 3.3%.

And the “%-inhibition of RET(G691S)” value ([3]; kinase RET(G691S), 1 μM)?
The value was -6%.

And the “%-inhibition of IGF1R” value [4]?
Its value is -4.62%.

What about the “%-inhibition of DDR1” value [5] of the same compound?
The value was -5.36%.

And the “%-inhibition of Erk5” value [6]?
Its value is -5%.

What about the “%-inhibition of SGK3” value [7] of the same compound?
The value was -4%.

And the “%-inhibition of MST4” value ([8]; kinase MST4, 1 μM)?
Its value is -3.42%.

And the “%-inhibition of DYRK1B” value [9]?
The value was -11%.

Which results are given for `CC(=O)Nc1cccc(-n2c(=O)n(C3CC3)c(=O)c3c(Nc4ccc(I)cc4F)n(C)c(=O)c(C)c32)c1` [trametinib]?
%-inhibition, CHK1 [1]: -0.719%; %-inhibition of NuaK1 ([2]; kinase NuaK1, 1 μM): -0.634%; %-inhibition of RET(G691S) ([3]; kinase RET(G691S), 1 μM): -1.48%; %-inhibition of IGF1R [4]: -10%; %-inhibition of DDR1 [5]: -2%; %-inhibition of Erk5 [6]: -2.55%; %-inhibition of SGK3 [7]: 0.769%; %-inhibition of MST4 ([8]; kinase MST4, 1 μM): -2.23%; %-inhibition of DYRK1B [9]: 3.34%

`CCCS(=O)(=O)Nc1ccc(F)c(C(=O)c2c[nH]c3ncc(-c4ccc(Cl)cc4)cc23)c1F` [vemurafenib] was tested. Which “%-inhibition, CHK1” value [1] did it give?
The value was 4%.

And the “%-inhibition of NuaK1” value ([2]; kinase NuaK1, 1 μM)?
Its value is 4%.

And the “%-inhibition of RET(G691S)” value ([3]; kinase RET(G691S), 1 μM)?
Its value is 23%.

What about the “%-inhibition of IGF1R” value [4] of the same compound?
The value was 10%.

What about the “%-inhibition of DDR1” value [5] of the same compound?
The value was 52%.

And the “%-inhibition of Erk5” value [6]?
The value was 0.709%.

And the “%-inhibition of SGK3” value [7]?
The value was -2.38%.

And the “%-inhibition of MST4” value ([8]; 1 µM)?
The value was -4.62%.

What about the “%-inhibition of DYRK1B” value [9] of the same compound?
Its value is -1.74%.
